# According to ChEMBL document CHEMBL3886958, “Substituted B-amino acid derivatives as CXCR3 receptor antagonists” (2016):
# Biological target: T1, C-X-C chemokine receptor type 3 (Homo sapiens, UniProt P49682)
# T1 sequence (P49682 whole entry): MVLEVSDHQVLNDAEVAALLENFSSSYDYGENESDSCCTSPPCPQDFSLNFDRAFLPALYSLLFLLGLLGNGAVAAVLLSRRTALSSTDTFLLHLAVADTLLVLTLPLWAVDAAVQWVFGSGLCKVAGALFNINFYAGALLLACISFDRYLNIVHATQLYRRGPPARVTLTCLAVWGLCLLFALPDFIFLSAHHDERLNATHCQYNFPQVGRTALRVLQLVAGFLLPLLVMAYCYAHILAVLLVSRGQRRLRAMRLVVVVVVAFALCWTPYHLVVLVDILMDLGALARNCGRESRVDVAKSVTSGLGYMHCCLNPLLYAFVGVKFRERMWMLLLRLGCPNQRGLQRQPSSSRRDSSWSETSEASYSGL
row,IC50,SMILES
1,81 nM,CCCN(Cc1ccc(OCCN2C(=O)CCC2=O)c(CC)c1)C(CC(=O)O)c1ccc(Cl)c(Cl)c1 (centres undefined)
2,467 nM,COc1cc(CN(CC2CCCC2)C(C(=O)O)c2ccc(Cl)cc2)ccc1OCCN1C(=O)CCC1=O (centres undefined)
3,295 nM,CCN(Cc1ccc(OCCN2C(=O)CCC2=O)c(OC)c1)C(c1ccc(Cl)cc1)C(C)(C)C(=O)O (centres undefined)
4,179 nM,COc1cc(CN(CC2CCCC2)C(CC(=O)O)c2ccc(Cl)cc2)ccc1CCCN1C(=O)CCC1=O (centres undefined)
5,686 nM,CCOC(=O)CC(c1ccc2c(c1)CCO2)N(Cc1ccc(OCCN2C(=O)CCC2=O)c(OC)c1)CC(C)C (centres undefined)
6,187 nM,COc1cc(CN(CC2CCCCC2)[C@@H](CC(=O)O)c2ccc(Cl)c(Cl)c2)ccc1OCCN1C(=O)CN(C)C1=O
7,40 nM,COc1cc(CN(CC2CC2)C(CC(=O)O)c2ccc(Cl)c(F)c2)ccc1SCCN1C(=O)CCC1=O (centres undefined)
8,495 nM,CCCN(Cc1ccc(OCCN2C(=O)CCC2=O)c(OC)c1)[C@H](C(=O)O)c1ccc(Cl)c(Cl)c1
9,435 nM,O=C(O)CC(c1ccc(Cl)c(Cl)c1)N(Cc1ccc(OCCN2C(=O)CCC2=O)c(F)c1)CC1CCCCC1 (centres undefined)
